Results published in patent US7569573B2, “Diketo acids with nucleobase scaffolds: anti-HIV replication inhibitors targeted at HIV integrase” (The University of Georgia Research Foundation, Inc., priority 2005, dated 2009).
Read-outs that look alike come from different tables or passages of the source.

Columns and labels:
[1] = literature values, same sources as the IC50; cited from earlier work
[2] = Cytotoxicity (CC50) in the PBMC cell-based anti-HIV assay
[3] = tested on: HIV; assay: In vitro anti-HIV activity, PBMC cell-based assay, side by side with AZT; settings: Human immunodeficiency virus 1

| IC50 [3] | Compound | CC50 [1] | CC50 [2] |
| --- | --- | --- | --- |
|  | O=C(/C=C(\O)c1nc[nH]n1)c1ccc(Cc2ccc(F)cc2)o1 [Example S-1360] | 110 µM |  |
| 0.02 µM | O=C(O)/C(O)=C/C(=O)c1cn(Cc2ccccc2)c(=O)n(Cc2ccccc2)c1=O |  | > 200 µM |
|  | O=C(O)C(=O)CC(=O)c1cc(OCc2ccccc2)cc(OCc2ccccc2)c1 [Example L-708906] | 88.3 µM |  |
